Results as given in patent US20050282863A1, “Novel-N substituted dihydrobenzothiepino, dihydrobenzoxepino and tetrahydro benzocyclohepta indoles as selective estrogen receptor modulators” (Council of Scientific & Industrial Research, priority 2004, published 2005).
Where two headings read alike, the source gives them in different places.

Legend:
adult female rats = assay: Post-coital antifertility efficacy in adult female rats; type: in vivo, rat; conditions: daily dose 10 mg/kg, oral, days 1-7 post-coitum
estrogen receptors = target: T1, estrogen receptors (Rattus norvegicus, UniProt P06211); assay: Relative binding affinity (RBA) to estrogen receptors, 3H-estradiol competition assay; parameters: key: % of 17-beta-estradiol binding affinity (estradiol = 100); conditions: relative to 17-beta-estradiol (=100, percentage value); rat uterine cytosol, 3H-E2, 18 hrs at 4° C.
T1 construct: Aliquot of uterine cytosol (200 μl; 2 uteri per ml) prepared in TEA buffer; from tissue; host or cells: uterine cytosol of immature estradiol-primed 20-21 day old rats
T1 sequence (P06211 1-600): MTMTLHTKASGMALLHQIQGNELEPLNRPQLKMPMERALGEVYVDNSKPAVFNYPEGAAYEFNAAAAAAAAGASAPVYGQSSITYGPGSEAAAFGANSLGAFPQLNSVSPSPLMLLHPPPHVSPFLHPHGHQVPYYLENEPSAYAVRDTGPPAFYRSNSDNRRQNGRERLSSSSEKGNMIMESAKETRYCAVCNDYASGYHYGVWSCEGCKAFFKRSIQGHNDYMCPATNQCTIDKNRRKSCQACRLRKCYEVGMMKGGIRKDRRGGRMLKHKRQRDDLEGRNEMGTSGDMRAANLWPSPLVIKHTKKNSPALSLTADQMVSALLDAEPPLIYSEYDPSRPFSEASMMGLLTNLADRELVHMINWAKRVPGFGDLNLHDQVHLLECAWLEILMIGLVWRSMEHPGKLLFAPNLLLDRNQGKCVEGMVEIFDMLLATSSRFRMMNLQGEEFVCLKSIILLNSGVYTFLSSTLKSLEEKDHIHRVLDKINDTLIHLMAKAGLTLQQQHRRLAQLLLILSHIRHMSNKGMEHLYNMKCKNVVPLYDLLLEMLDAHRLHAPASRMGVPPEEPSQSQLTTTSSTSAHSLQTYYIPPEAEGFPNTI
Summary of the method: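 Competition against a fixed concentration of ³H-estradiol for cytosolic receptor from uteri of immature (20-21 day) estradiol-primed rats, in TEA buffer pH 7.4 with ≤5% DMF, 18 h at 4° C. Free ligand removed with dextran-coated charcoal; bound radioactivity counted and RBA read from percent-bound vs log concentration plot, expressed as percentage.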

MCF-7 cells = assay: Antiproliferative/cytotoxic activity in cultured MCF-7 cells (SRB assay); type: cell-based; conditions: Homo sapiens, MCF7, 48 h, MCF-7, 48 h
Experimental: The procedure is based on the following methods: New calorimetric assay for anticancer drug screening, Skehan et al., J Natn Cancer Inst, 82,1107, 1990 and Feasibility of a high-flux anticancer drug screen using a diverse panel of cultured human tumor cell lines, J Natn Cancer Inst, 83,757, 1991.
A fully confluent flask of MCF-7 cells in trypsinized and 10^4 cells/well are plated in a 96 welled flat bottomed plate in 200 μl Minimum Essential Medium (MEM), pH 7.4 and allowed to attach for 24 h at 37° C. in a humidified CO2 incubator. Subsequently, the compound of invention dissolved in DMSO or ethanol is added at a specified concentration and further incubated for 48 h as before. The cells are then fixed in 50 μl cold 50% TCA and incubated for 1 h at 4° C. The supernatant is discarded and the plate is washed five times with deionized water and air-dried. 100 μl of 0.4% (w/v) Sulforhodamine B (SRB) in 1% acetic acid is added to each well and incubated at room temperature for 30 minutes. Unbound SRB is removed by five washes with chilled 1% acetic acid and the plate is air-dried. 200 μl of unbuffered 10 mM Tris base is added to solublize the bound stain for 5 minutes at room temperature and O.D. is read at 560 nm in a plate reader. The graph is plotted between O.D. and concentration and LC50 is calculated with respect to tamoxifen, which is used as a positive control.

[1] = tested on: chick fetal bones in culture; assay: Inhibition in PTH-induced resorption of 45Ca from chick fetal bones in culture (antiresorptive activity in vitro); type: cell-based; conditions: Gallus gallus, 96 h, PTH-induced 45Ca resorption, 96 h culture, read-out: T/C ratio
Experimental: 5 μl of each concentration are used for evaluation of antiresorptive activity in vitro. In control experiments, 5 μl of appropriate solvent is used in lieu of the test compound. Femur bones are isolated from chick embryos on day 11 post-ovulation. The adhering soft connective tissue is completely removed. Each femur bone is then placed in a drop of phosphate buffered saline (PBS) and is transferred to BGJb culture medium containing ^45CaCl2 and incubated for 2 h. Labeled femur bones are washed 2-3 times with PBS and transferred to BGJb medium containing parathyroid hormone and cultured for 96 h in the presence or absence of the compound of invention or the vehicle in BGJb medium. Contralateral femur of each fetus serves as corresponding control. Culture medium with the respective treatment in each well is changed after 48 h. On termination of the culture at 96 h, bones are transferred to 0.1 N HCl for 24 h. Radioactivity due to ^45Ca in the spent medium collected at 48 and 96 h of culture and HCl extract at 96 h of culture is quantified by Liquid Scintillation Spectrophotometer in 10 ml of the scintillation fluid. Bone resorbing activity is expressed as percentage of ^45Ca released into the culture medium and the effect of the compound of invention as percent of the corresponding contra-lateral control or T/C ratio as shown below: [formula]
Appropriate solvents are selected from solvents like water, physiological saline, phosphate buffered saline, phosphate buffer, DMSO alone or in a suitable combination thereof.

Structure (SMILES) | % Efficacy (adult female rats) | RBA (estrogen receptors) | CC50 (MCF-7 cells; read-out: LC50, Test-1) [µM] | CC50 (MCF-7 cells; read-out: LC50, Test-3) [µM] | activity at 100 µM ([1]; 100 μM) [%] | activity at 25 µM ([1]; 25 μM) [%] | activity at 50 µM ([1]; 50 μM) [%] | activity at 200 µM ([1]; 200 μM) [%]
c1ccc2c(c1)SCCc1c-2n(CCCCCCN2CCCCC2)c2ccccc12 [Example number 18, 12-[6-(Piperidine-1-yl)hexyl]-6,7-dihydro-12H-benzothiepino [5,4-b]indole] | Inactive | 0.17 | 18.2 | 9.63 | 160 |  |  | 
CCCCN(C)CCCCCn1c2c(c3ccccc31)CCSc1ccccc1-2 [Example number 13, 12-[5-(N-butylmethylamino)pentyl]-6,7-dihydro-12H-benzothiepino [5,4-b]indole] | Inactive | <0.001 | 24 |  |  | 33 | 41 | 61
